Values quoted from earlier work as cited in US20240000142A1, “AEROSOL […] FOR AQUEOUS CANNABINOID COMPOSITIONS” (OMEGA LIFE SCIENCE LTD., priority 2020, published 2024).

Settings: nicotine as a weak base; "as appreciated by the skilled in the art"

For `CN1CCCC1c1cccnc1` (stereo not shown) [nicotine], the pKa is listed as “about 8”.
